“Also recorded” adds a separate entry of the source. Like-named read-outs stand apart in the source and are kept apart here.
Legend:
serum prolactin = experiment: Serum prolactin levels in open-label depression studies; type: in vivo, human
Text: (Three of the patients had been treated recently with a phenothiazine or amoxapine).

[1] = test system: psychotic, including schizophrenic, disorders; experiment: Clinical trials in human patients with psychotic, including schizophrenic, disorders (Example 3); type: in vivo
Protocol: Clinical trials with the lead compound, adinazolam, in the treatment of human patients for psychotic, including schizophrenic, disorders in the absence of depression are in progress. […] Patients are being maintained on dosages of from 2.5 to 20 mg. of adinazolam qid (four times a day).
In one patient extrapyramidal side effects persisting from previous medication disappeared with adinazolam therapy.

[2] = test system: ^3 H-Spiroperidol binding; experiment: animal or person; type: in vivo, Male ICR mice; settings: for activity at 50 mg/kg: Mus musculus, sc, read-out: In vivo ^3 H-Spiroperidol % of Control
Protocol: The following representative compounds were tested in an in vivo mouse ^3 H-Spiroperidol binding test.
The test procedure was as follows:
Male ICR mice weighing 20-22 g were used.
The animals were dosed with the ^3 H-Spiroperidol solution at 66 micro-Curie/kg in 0.2 ml, by the subcutaneous route. The animals were sacrificed 2 hours later and sections of the brains of the mice were removed with striata and septum and some adjacent cortex. The tissues were weighed after freezing on dry ice and dissolved in 1 ml of Protosol overnight at 35° C. The Protosol was neutralized with 80 μl of 6N hydrochloric acid and 15 ml of ACS scintillation fluid was added. All samples were then counted in a liquid scintillation counter.
A background of 25 counts per minute (CPM) was subtracted from the counts for each sample counted. The CPM/mg of the tissue was calculated and a statistical t test was used to test the significance of the value.

[3] = test system: intractable psychosis or schizoaffective illnesses; experiment: Preliminary clinical trials in human patients with intractable psychosis or schizoaffective illnesses; type: in vivo; settings: small, but effective and safe dosage amounts
schizoaffective patient = experiment: Treatment of a human schizoaffective patient with adinazolam (Example 2); type: in vivo; settings: 5 mg bid first day, 5 mg tid second day; over two days; one patient refractory to tricyclic antidepressant and stelazine
Protocol: In a human patient, adinazolam was given for two days at a dosage of 5 mg bid (twice a day) the first day and 5 mg tid (three times a day) the second day to a human schizoaffective patient suffering moodcongruent delusions and persecutory auditory hallucinations which had been refractory to four months of therapy with a tricyclic antidepressant and stelazine. The clinician serving the patient found a remarkable approximately fifty percent (50%) improvement in the patient's condition over the two days of treatment with adinazolam.

acute psychosis = settings: cited from earlier work
[4] = Dose 50 mg/kg, subcutaneous, one hour before ^3 H-Spiroperidol, sacrificed 2 hours later

SMILES: CN(C)Cc1nnc2n1-c1ccc(Cl)cc1C(c1ccccc1)=NC2 [Compound 1, 8-chloro-1-[(dimethylamino)methyl]-6-phenyl-4H--s-triazolo[4,3-a][1,4]-benzodiazepine]
- prolactin levels in patients with elevated prolactin at introductory screening (serum prolactin; four patients (2 males; 2 females), three recently treated with a phenothiazine or amoxapine): the prolactin levels in all four patients normalized
- effect on serum prolactin levels (serum prolactin; open-label depression studies): no apparent elevating effect on serum prolactin levels
- improvement of patients ([1]; five patients, 2.5 to 20 mg qid, absence of depression): all experienced moderate or marked improvement
- extrapyramidal side effects persisting from previous medication ([1]; one patient): disappeared
- effect of unintentional withdrawal of medication ([1]; one patient, medication withdrawn for 24 hours): reverted to a psychotic condition
- effect of reinitiated therapy ([1]; one patient, reinitiated in the morning after 24 hour withdrawal, that same day): became lucid again that same day
- activity at 50 mg/kg [2]: 82%
- Activity in the ^3 H-Spiroperidol binding test (in words) ([2]; animals, in vivo, listed as adinazolam): active; also recorded: weak but suggested antipsychotic-like activity
- symptoms of schizophrenia and affective improvement [3]: improved symptoms of schizophrenia and affective improvement
- improvement in the patient's condition (schizoaffective patient): ~50%

SMILES: CN1CCN(c2nnc3n2-c2ccccc2C(c2ccccc2Cl)=NC3)CC1 [Compound 6, 1-(4-methyl-1-piperazinyl)-6-(2-chlorophenyl)-4H--s-triazolo[4,3-a][1,4]benzodiazepine]
- activity at 50 mg/kg [2, 4]: 65%

SMILES: CN1CCN(c2nnc3n2-c2ccc(Cl)cc2C(c2ccccc2)=NC3)CC1 [Compound 2, 8-chloro-1-(4-methyl-1-piperazinyl)-6-phenyl-4H--s-triazolo[4,3-a][1,4]benzodiazepine]
- In vivo ^3 H-Spiroperidol % of Control ([2]; Dose 50 mg/kg, subcutaneous, one hour before ^3 H-Spiroperidol, sacrificed 2 hours later, 50 mg/kg): 73%
- activity at 50 mg/kg [2, 4]: 69%

SMILES: CN1C(=O)CN=C(c2ccccc2)c2cc(Cl)ccc21 [diazepam]
- effectiveness versus haloperidol in acute psychosis (acute psychosis; over 24 hours of treatment): at least as effective as haloperidol
- sedation effects (acute psychosis; treatment of acute psychosis): marked sedation effects

SMILES: CN(C)CCc1nnc2n1-c1ccc(Cl)cc1C(c1ccccc1)=NC2 [Compound 3, 8-chloro-1-[2-(dimethylamino)ethyl]-6-phenyl-4H--s-triazolo[4,3-a][1,4]benzodiazepine]
- activity at 50 mg/kg [2, 4]: 78%

SMILES: CN1CCN(c2nnc3n2-c2ccccc2C(c2ccccc2)=NC3)CC1 [Compound 4, 1-(4-methyl-1-piperazinyl)-6-phenyl-4H--s-triazolo[4,3-a][1,4]benzodiazepine]
- activity at 50 mg/kg [2, 4]: 59%

SMILES: CCN1CCN(c2nnc3n2-c2ccccc2C(c2ccccc2Cl)=NC3)CC1 [Compound 7, 1-(4-ethyl-1-piperazinyl)-6-(2-chlorophenyl)-4H--s-triazolo[4,3][1,4]benzodiazepine]
- activity at 50 mg/kg [2, 4]: 72%

SMILES: CC1NC(c2ccccc2)c2cc(Cl)ccc2-n2c1nnc2N1CCN(C)CC1 (stereo not shown) [Compound 5, 8-chloro-1-(4-methyl-1-piperazinyl)-4-methyl-5,6-dihydro-6-phenyl-4H--s-triazolo[4,3-a][1,4]benzodiazepine]
- In vivo ^3 H-Spiroperidol % of Control [2, 4]: 89%

Reference: patent US4472397A, “Use of certain 1-substituted-triazolo-benzodiazepines to treat psychoses” (priority 1983, dated 1984)
